Structures can show the parent of a compound that is named as a salt.
How the values were obtained:
[1] = in vitro; conditions: dog
[2] = tested on: influenza virus (IFV) A/California/07/2009 (H1N1) pdm09 strain; test: In vitro activity against influenza virus (CPE, CCK8, MDCK cells); assay type: cell-based; conditions: 120 h; for EC50: read-out: IFV (MDCK) EC50
[3] = tested on: respiratory syncytial virus (RSV) A long strain; test: In vitro activity against respiratory syncytial virus (CPE, CCK8, HEp-2 cells); assay type: cell-based; conditions: human respiratory syncytial virus, 120 h, MOI=0.02, 5 days; for inhibition at 5 µM: read-out: RSV (HEp-2) inhibition rate at a concentration of 5 μM
[4] = Cytotoxicity in HEp-2 cells (CCK8); conditions: human
[5] = Stability test of compounds in solutions at different pH values
[6] = tested on: SFTSV-Nluc; test: microbe, parasite or virus in culture; assay type: cell-based, severe fever with thrombocytopenia syndrome virus (SFTSV); conditions: Severe fever with thrombocytopenia syndrome virus, Vero, 48 h; for inhibition at 10 µM: read-out: Inhibition rate (10 μM)

## CC(C)C(=O)OCn1c(=O)ccn([C@@H]2O[C@](F)(CO)[C@@H](O)[C@H]2O)c1=O [Compound X43]
[1]
  CC50: > 10000 nM
[2]
  EC50: 500 nM
[3]
  EC50: 2320 nM
[4]
  CC50 at 5 days: > 10000 nM

## CCC(CC)C(=O)OCn1c(=O)ccn([C@@H]2O[C@](F)(COC(=O)C(C)C)[C@@H](O)[C@H]2O)c1=O [Compound X52]
[1]
  CC50: > 10000 nM
[2]
  EC50: 570 nM
[3]
  EC50: 4850 nM
[4]
  CC50 at 5 days: > 10000 nM
[5]; buffered saline solution pH 4.0, 3 h
  Content reduction (%): 0.9%
[5]; buffered saline solution pH 4.0, 6 h
  Content reduction (%): 1.4%
[5]; buffered saline solution pH 4.0, 9 h
  Content reduction (%): 1.9%
[5]; buffered saline solution pH 4.0, 12 h
  Content reduction (%): 2.2%
[5]; buffered saline solution pH 4.0, 15 h
  Content reduction (%): 2.6%
[5]; buffered saline solution pH 4.0, 18 h
  Content reduction (%): 3.0%
[5]; buffered saline solution pH 4.0, 21 h
  Content reduction (%): 3.4%
[5]; buffered saline solution pH 4.0, 24 h
  Content reduction (%): 3.6%
[5]; buffered saline solution pH 6.8, 3 h
  Content reduction (%): 1.2%
[5]; buffered saline solution pH 6.8, 6 h
  Content reduction (%): 2.3%
[5]; buffered saline solution pH 6.8, 9 h
  Content reduction (%): 3.3%
[5]; buffered saline solution pH 6.8, 12 h
  Content reduction (%): 4.3%
[5]; buffered saline solution pH 6.8, 15 h
  Content reduction (%): 5.4%
[5]; buffered saline solution pH 6.8, 18 h
  Content reduction (%): 6.6%
[5]; buffered saline solution pH 6.8, 21 h
  Content reduction (%): 7.6%
[5]; buffered saline solution pH 6.8, 24 h
  Content reduction (%): 8.7%

## CCC(CC)C(=O)OC[C@@]1(F)O[C@@H](n2ccc(=O)n(COC(=O)C(C)C)c2=O)[C@H](O)[C@@H]1O [Compound X57]
[1]
  CC50: > 5000 nM
[2]; read-out: IFV (MDCK) inhibition rate at a concentration of 5 μM
  inhibition at 5 µM: 90.5%
[3]
  inhibition at 5 µM: 50.3%
[4]
  CC50 at 5 days: > 5000 nM

## CC(C)C(=O)OCn1c(=O)ccn([C@@H]2O[C@](F)(COC(=O)C3CCCCC3)[C@@H](O)[C@H]2O)c1=O [Compound X61]
[1]
  CC50: > 10000 nM
[6]
  EC50: 590 nM
  inhibition at 10 µM: 96.1%
[2]
  EC50: < 370 nM
[3]
  EC50: 2040 nM
[4]
  CC50 at 5 days: > 10000 nM

## O=C(OCn1c(=O)ccn([C@@H]2O[C@](F)(COC(=O)C3CCCCC3)[C@@H](O)[C@H]2O)c1=O)C1CCCCC1 [Compound X63]
[1]
  CC50: > 10000 nM
[2]
  EC50: < 370 nM
[3]
  EC50: 1510 nM
[4]
  CC50 at 5 days: > 10000 nM

## CC(C)C(=O)OCn1c(=O)ccn([C@@H]2O[C@](F)(COC(=O)[C@@H](N)C(C)C)[C@@H](OC(=O)C(C)C)[C@H]2OC(=O)C(C)C)c1=O [Compound X79]
[1]
  CC50: > 10000 nM
[6]
  inhibition at 10 µM: < 10%
[2]
  EC50: 480 nM
[3]
  EC50: 1460 nM
[4]
  CC50 at 5 days: > 10000 nM

## CC(C)C(=O)OCn1c(=O)ccn([C@@H]2O[C@](F)(COC(=O)C(C)C)[C@H]3OC(=O)O[C@@H]23)c1=O [Compound X113]
[1]
  CC50: > 10000 nM
[2]
  EC50: < 370 nM
[3]
  EC50: 1970 nM
[4]
  CC50 at 5 days: > 10000 nM

## CC(C)=CCOc1ccn([C@@H]2O[C@](F)(COC(=O)C(C)C)[C@@H](O)[C@H]2O)c(=O)n1 [Compound X134]
[1]
  CC50: > 10000 nM
[2]
  EC50: 460 nM
[3]
  EC50: 1200 nM
[4]
  CC50 at 5 days: > 10000 nM

## CC(C)C(=O)OCn1c(=O)ccn([C@@H]2O[C@](F)(CO)[C@H]3OC(=O)O[C@@H]23)c1=O [Compound X173]
[1]
  CC50: > 10000 nM
[2]
  EC50: 460 nM
[3]
  EC50: 2620 nM
[4]
  CC50 at 5 days: > 10000 nM

## CC(C)C(=O)OC[C@@]1(F)O[C@@H](n2ccc(=O)n(COC(=O)CCCN(C)C)c2=O)[C@@H]2OC(=O)O[C@@H]21 [Compound X185]
[3]
  inhibition at 5 µM: 94.7%
[4]
  CC50 at 5 days: > 5000 nM

## O=C(/C=C/c1ccccc1)OCn1c(=O)ccn([C@@H]2O[C@](F)(COC(=O)/C=C/c3ccccc3)[C@@H](O)[C@H]2O)c1=O [Compound X198]
[3]
  EC50: 2450 nM
[4]
  CC50 at 5 days: > 10000 nM

## CCCCCCCCCCCCCCCC(=O)OCn1c(=O)ccn([C@@H]2O[C@](F)(COC(=O)CCCCCCCCCCCCCCC)[C@@H](O)[C@H]2O)c1=O [Compound X200]
[1]
  CC50: > 10000 nM
[2]
  EC50: 2290 nM
[3]
  EC50: 1170 nM
[4]
  CC50 at 5 days: > 10000 nM

## CC(C)C(=O)OCn1c(=O)ccn([C@@H]2O[C@](F)(COC(=O)C(C)C)[C@@H](OC(=O)C(C)C)[C@H]2OC(=O)C(C)C)c1=O [Compound X201]
[1]
  CC50: > 10000 nM
[2]
  EC50: 560 nM
[3]
  EC50: 1510 nM
[4]
  CC50 at 5 days: > 10000 nM

## CC(C)C(=O)OC[C@@]1(F)O[C@@H](n2ccc(=O)n(COC(=O)C3CCNCC3)c2=O)[C@H](OC(=O)C(C)C)[C@@H]1OC(=O)C(C)C [Compound X204]
[1]
  CC50: > 10000 nM
[2]
  EC50: 650 nM
[3]
  EC50: 1520 nM
[4]
  CC50 at 5 days: > 10000 nM

## CC(C)C(=O)OC[C@@]1(F)O[C@@H](n2ccc(=O)n(COC(=O)C3CCN(C)CC3)c2=O)[C@H](OC(=O)C(C)C)[C@@H]1OC(=O)C(C)C [Compound X205]
[1]
  CC50: > 10000 nM
[2]
  EC50: < 370 nM
[3]
  EC50: 2560 nM
[4]
  CC50 at 5 days: > 10000 nM

## CC(C)C(=O)OCn1c(=O)ccn([C@@H]2O[C@](F)(COC(=O)c3cccnc3)[C@@H](O)[C@H]2O)c1=O [Compound X208]
[1]
  CC50: > 10000 nM
[2]
  EC50: < 370 nM
[3]
  EC50: 1090 nM

## CC(C)(C)C(=O)OC[C@@]1(F)O[C@@H](n2ccc(=O)n(COC(=O)c3cccnc3)c2=O)[C@H](O)[C@@H]1O [Compound X210]
[1]
  CC50: > 10000 nM
[2]
  EC50: < 370 nM
[3]
  EC50: 1880 nM
[4]
  CC50 at 5 days: > 10000 nM

## CCC(CC)C(=O)OC[C@@]1(F)O[C@@H](n2ccc(=O)n(COC(=O)c3cccnc3)c2=O)[C@H](O)[C@@H]1O [Compound X211]
[1]
  CC50: > 10000 nM
[2]
  EC50: 3340 nM
[3]
  EC50: 5820 nM
[4]
  CC50 at 5 days: > 10000 nM

## CC(C)C(=O)OC[C@@]1(F)O[C@@H](n2ccc(=O)n(COC(=O)c3cccnc3)c2=O)[C@@H]2OC(=O)O[C@@H]21 [Compound X214]
[1]
  CC50: > 10000 nM
[2]
  EC50: < 370 nM
[3]
  EC50: 2090 nM
[4]
  CC50 at 5 days: > 10000 nM

## CCC(=O)OC[C@@]1(F)O[C@@H](n2ccc(=O)n(COC(=O)c3cccnc3)c2=O)[C@H](OC(=O)CC)[C@@H]1OC(=O)CC [Compound X220]
[1]
  CC50: > 10000 nM
[2]
  EC50: 819 nM
[3]
  EC50: 1290 nM
[4]
  CC50 at 5 days: > 10000 nM

## CCC(CC)C(=O)OCn1c(=O)ccn([C@@H]2O[C@](F)(COC(=O)c3cccnc3)[C@@H](O)[C@H]2O)c1=O [Compound X223]
[1]
  CC50: > 10000 nM
[2]
  EC50: 820 nM
[3]
  EC50: 2140 nM
[4]
  CC50 at 5 days: > 10000 nM

## O=C(OCn1c(=O)ccn([C@@H]2O[C@](F)(COC(=O)c3cccnc3)[C@@H](O)[C@H]2O)c1=O)c1cccnc1 [Compound X231]
[1]
  CC50: > 10000 nM
[2]
  EC50: 510 nM
[3]
  EC50: 1160 nM
[4]
  CC50 at 5 days: > 10000 nM

## O=C(OCn1c(=O)ccn([C@@H]2O[C@](F)(COC(=O)c3cccnc3)[C@@H](OC(=O)c3cccnc3)[C@H]2OC(=O)c2cccnc2)c1=O)c1cccnc1 [Compound X232]
[1]
  CC50: > 10000 nM
[2]
  EC50: 850 nM
[3]
  EC50: 1130 nM
[4]
  CC50 at 5 days: > 10000 nM

## O=C1O[C@H]2[C@H](n3ccc(=O)n(COC(=O)c4cccnc4)c3=O)O[C@](F)(COC(=O)c3cccnc3)[C@H]2O1 [Compound X233]
[1]
  CC50: > 10000 nM
[2]
  EC50: 460 nM
[3]
  EC50: 1200 nM
[4]
  CC50 at 5 days: > 10000 nM

## CC(C)C(=O)O[C@H]1[C@H](n2ccc(=O)n(COC(=O)c3cccnc3)c2=O)O[C@](F)(COC(=O)c2cccnc2)[C@H]1OC(=O)C(C)C [Compound X257]
[1]
  CC50: > 10000 nM
[2]
  EC50: 1380 nM
[3]
  EC50: 1640 nM
[4]
  CC50 at 5 days: > 10000 nM

## CCN(CC)CC(=O)OCn1c(=O)ccn([C@@H]2O[C@](F)(COC(=O)C(C)C)[C@@H](OC(=O)C(C)C)[C@H]2OC(=O)C(C)C)c1=O [Compound X260]
[1]
  CC50: > 10000 nM
[2]
  EC50: < 370 nM
[3]
  EC50: 2340 nM
[4]
  CC50 at 5 days: > 10000 nM

## CC(C)C(=O)OC[C@@]1(F)O[C@@H](n2ccc(=O)n(COC(=O)CN(C)C)c2=O)[C@H](OC(=O)C(C)C)[C@@H]1OC(=O)C(C)C [X100 hydrochloride]
[1]
  CC50: > 10000 nM
[2]
  EC50: 410 nM
[3]
  EC50: 1790 nM
[4]
  CC50 at 5 days: > 10000 nM

— patent publication US20250282812A1, “ANTIVIRAL NUCLEOSIDE ANALOGUE, AND PHARMACEUTICAL COMPOSITION AND USE THEREOF” (SHANGHAI INSTITUTE OF MATERIA MEDICA , CHINESE ACADEMY OF …, priority 2022, published 2025)
